Reference: patent US20250332173A1, “COMPOUNDS AND METHODS FOR MODULATING NUCLEIC ACID SPLICING” (REMIX THERAPEUTICS INC., priority 2021, published 2025)
pIC50: −log10 of the molar value. Where two headings read alike, the source gives them in different places.

How the values were obtained:
HTT = test: HiBiT protein abundance assay, HTT HiBiT K562 cell line; type: cell-based, human; details: 24 hours, top dose 10 μM
Experimental: (§1) Compounds described herein were used to screen for effects on quantitative protein abundance using a HiBit assay system (Promega). Quantitative protein abundance was determined by measuring the protein levels of HiBit-tagged protein targets expressed in cell culture via luminescence using the Nano-Glo HiBiT Lytic Detection System, which uses a split complementation assay format to reconstitute NanoBiT enzyme to generate a luminescent signal. A protein abundance assay was developed such that endogenous protein targets could be modified with the HiBiT peptide tag and their abundance could be assessed after compound treatment. Briefly, K562 cell lines containing a HiBiT-modification were treated with various compounds described herein (e.g., compounds of Formulas (I), (II), (III), (IV), (V), (VI), (VII), (VIII), or (IX)). After treatment for 24 hours, the protein abundance of a specific target was determined by measuring luminescence.
(§2) • Promega Nano-Glo HiBiT Lytic Detection System (cat #N3030) • Corning 384-well TC-treated microplates (cat #3570) • Synthego Engineered Cells Knock-In Clones
(§3) Cells were maintained in IMDM with 10% FBS. Before the assay, cells were diluted with […] growth media (IMDM+[…] media) and were seeded in a 384-well plate at a density of 10,000 cells/well (for each cell line listed in Table 5). Each compound was prepared as a 10-point 3-fold serial dilution in DMSO with the top dose at a final concentration of 10 μM in the well. Unmodified K562 cells were added at the previously specified density with DMSO to serve as an assay baseline and positive control (PC) and DMSO only with the respective modified cell lines was added to the negative control (NC) columns. Final DMSO concentration was kept at or below 0.25%. Treated cell plates were placed in an incubator at 37° C. with […] for 24 hours. After 24 hours, 25 μL of Complete HiBit Lytic reagent was added to each well at room temperature (e.g. one plate requiring 10 mL Lytic Buffer, 100 μL LgBiT Protein, 200 μL Lytic Substrate), shaken for 5 minutes at 600 RPM, then left to sit for 10 minutes for signal to stabilize before reading on a Spark Cyto plate reader (Tecan) with a 500 ms measurement time.
(§4) To determine compound effects on protein abundance of each target in Table 5, the percent response for each respective cell line was calculated at each compound concentration as follows:
(§5) For the normalized response at each concentration, a four-parameter logistical regression was fit to the data and the response was interpolated at the […] to determine a concentration for protein abundance at […] the untreated control.

Target C [1] = test: HiBiT protein abundance assay, Target C HiBiT K562 cell line; type: cell-based; details: Homo sapiens; HiBiT lytic detection, modified K562 cells, 24 hours, top dose 10 μM; read-out: Effect on protein abundance, Target C (IC50)
Experimental: as §2, §3, §4, §5

SMN2 mRNA = test: RT-qPCR splicing assay, SMN2 canonical junction (CJ) mRNA; type: cell-based, human; details: Homo sapiens, read-out: SMN2 (decrease in CJ mRNA levels, IC50)
Procedure, shortened: (§6)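 Cells are plated (A673 allowed 24 h to adhere), dosed with an 11-point 3-fold series topping at 10 uM final, and incubated 24 h at 37 °C. Lysis is followed by cDNA synthesis and qPCR of the CJ transcript, normalized to a housekeeping gene.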

MYB = test: HiBiT protein abundance assay, MYB HiBiT K562 cell line; type: cell-based, human; details: 24 hours, top dose 10 μM
Experimental: as §1, §2, §3, §4, §5

HTT mRNA = test: RT-qPCR splicing assay, HTT canonical junction (CJ) and alternative junction (AJ) mRNA; type: cell-based, human; details: Homo sapiens
Procedure, shortened: (§7)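 Splicing switches were read by TaqMan RT-qPCR on lysates, quantifying exon-exon junctions of the canonical and alternative-exon isoforms. Lysates came from K562 (GAPDH/GUSB reference) or A673 (PPIA reference) cells exposed 24 h to compound in 11 threefold steps from 10 uM, with DMSO ≤0.25%.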

MYB mRNA = test: RT-qPCR splicing assay, MYB canonical junction (CJ) and alternative junction (AJ) mRNA; type: cell-based, human; details: Homo sapiens
Procedure, shortened: as §7

[2] = test system: K562 (human chronic myelogenous leukemia) cells; test: Cell Titer Glo 2.0 cell viability assay; type: cell-based; details: Homo sapiens, K562, 72 h, read-out: K562 GI50
Experimental: Compounds described herein were screened for toxicity in K562 (human chronic myelogenous leukemia) cells using a Cell Titer Glo 2.0 assay.
Cells were plated at 500 cells/well (K562 cells) in 45 μL of IMDM supplemented with 1000 FBS in a 384-well opaque plate. Wells containing only medium were used as a blank control. Test compounds (e.g., compounds ofFormula (I), (II), (III), (IV), (V), (VI), (VII), (VIII), and (IX)) were first serially diluted in DMSO then diluted 1:100 with IMDM+10% FBS. The final concentration of DMSO was 0.1% in each well. The cells were incubated for 72 hours at 37° C. and 500 CO2 before assaying with Cell Titer Glo 2.0 reagent.

Target C [3] = test: HiBiT protein abundance assay, Target C (Promega Nano-Glo HiBiT Lytic Detection System, knock-in K562 cell line); type: cell-based, human; details: Homo sapiens, K562, 24 h, read-out: Effect on protein abundance, Target C (IC50 category)
Experimental: as §2, §3, §4, §5

Target C [4] = test: RT-qPCR splicing assay panel, Target C canonical junction (CJ) mRNA; type: cell-based, human; details: Homo sapiens, read-out: Target C (decrease in CJ mRNA levels, IC50)
Procedure, shortened: as §6

[5] = HiBiT lytic detection, modified K562 cells, read-out: Effect on protein abundance, HTT (IC50)
[6] = canonical junction qPCR panel, Table 5
[7] = HiBiT lytic detection, modified K562 cells, read-out: Effect on protein abundance, MYB (IC50)
[8] = decrease in HTT canonical junction (CJ) mRNA, RT-qPCR, read-out: HTT CJ IC50
[9] = increase in HTT alternative junction (AJ) mRNA, RT-qPCR, read-out: HTT AJ AC50
[10] = canonical junction qPCR panel, Table 5, read-out: HTT (decrease in CJ mRNA levels, IC50)
[11] = canonical junction qPCR panel, Table 5, read-out: MYB (decrease in CJ mRNA levels, IC50)
[12] = decrease in MYB canonical junction (CJ) mRNA, RT-qPCR, read-out: MYB CJ IC50
[13] = increase in MYB alternative junction (AJ) mRNA, RT-qPCR, read-out: MYB AJ AC50
[14] = K562 cells, 72 hours, Cell Titer Glo 2.0

Row | Compound | pIC50 (HTT; [5]) | pIC50 (Target C [1]) | pIC50 (SMN2 mRNA; [6]) | pIC50 (MYB; [7]) | pIC50 (HTT mRNA; [8]) | AC50 (HTT mRNA; [9]) [nM] | pIC50 (HTT mRNA; [10]) | pIC50 (MYB mRNA; [11]) | pIC50 (MYB mRNA; [12]) | AC50 (MYB mRNA; [13]) [nM] | GI50 [2, 14] [µM] | further results
1 | CN1CCN(c2ccc3ncn(-c4ccc5nn(C)cc5c4)c(=O)c3c2)CC1 [Compound 2154] | < 5.00 | < 5.00 | < 5.00 | < 5.00 | < 5.00 | > 10000 | < 5.00 | < 5.00 | < 5.00 | > 10000 | – | –
2 | Cn1cc2cc(-n3cnc4ccc(N5CCNCC5)cc4c3=O)ccc2n1 [Compound 2155] | < 5.00 | < 5.00 | < 5.00 | < 5.00 | < 5.00 | > 10000 | < 5.00 | < 5.00 | < 5.00 | > 10000 | – | –
3 | Cn1cc2cc(-c3cc4ncn(C5CCNCC5)c(=O)c4cn3)c(O)c(F)c2n1 [Compound 1276] | > 7.00 | > 7.00 | – | 6.00 to 7.00 | – | – | – | – | – | – | 0.1 to 1 | –
4 | Cn1cc2cc(-n3cnc4ccc(C5=CCNCC5)cc4c3=O)ccc2n1 [Compound 2151] | < 5.00 | < 5.00 | < 5.00 | < 5.00 | < 5.00 | > 10000 | < 5.00 | 6.00 to 7.00 | < 5.00 | 100 to 1000 | – | –
5 | Cc1cn2nc(-c3ccc4c(=O)n(C5CCN(C6CCC6)C6(CC6)C5)ncc4n3)cc(C)c2n1 (centres unmarked) [Compound 1540, 6-(4-cyclobutyl-4-azaspiro[2.5]octan-7-yl)-2-(2,8-dimethylimidazo[1,2-b]pyridazin-6-yl)pyrido[2,3-d]pyridazin-5-one] | – | – | – | – | – | – | – | – | – | – | – | pIC50 (Target C [3]): 6.00 to 7.00; pIC50 (HTT; read-out: Effect on protein abundance, HTT (IC50 category), HiBiT K562 cell line): 6.00 to 7.00; GI50 [2]: 0.1 to 1 µM; pIC50 (SMN2 mRNA): > 7.00; pIC50 (MYB; read-out: Effect on protein abundance, MYB (IC50 category), HiBiT K562 cell line): 6.00 to 7.00; pIC50 (HTT mRNA; read-out: HTT (decrease in CJ mRNA levels, IC50)): 6.00 to 7.00; AC50 (HTT mRNA; read-out: HTT AJ AC50 (nM)): 100 to 1000 nM; IC50 (HTT mRNA; read-out: HTT CJ IC50 (nM)): 100 to 1000 nM; pIC50 (MYB mRNA; read-out: MYB (decrease in CJ mRNA levels, IC50)): 6.00 to 7.00; AC50 (MYB mRNA; read-out: MYB AJ AC50 (nM)): 100 to 1000 nM; IC50 (MYB mRNA; read-out: MYB CJ IC50 (nM)): 100 to 1000 nM; pIC50 (Target C [4]): 6.00 to 7.00
6 | Cc1cc(-c2nc3cc(N4CCN(C)CC4)ccc3c(=O)[nH]2)cc2cn(C)nc12 [Compound 2214] | < 5.00 | < 5.00 | < 5.00 | < 5.00 | < 5.00 | > 10000 | < 5.00 | – | – | – | 1 to 10 | pIC50 (Target C [4]; [6]): < 5.00
7 | Cc1cn2nc(-c3cnc4c(=O)n(C5CCNCC5)ncc4c3)cc(C)c2n1 [Compound 1411] | 5.00 to 6.00 | 5.00 to 6.00 | – | 5.00 to 6.00 | – | – | – | – | – | – | 1 to 10 | –
